A short description of series [1]: Half life period was determined. The format is ADME. The following applies: pH 9, 50 °C.
For series [2], the system named is Pseudomonas aeruginosa. The experiment in a line: Minimum inhibitory concentration against Pseudomonas aeruginosa NCIB 6749 was determined in chem. def. medium. The class given is functional.
In series [3] the test system is Pseudomonas aeruginosa. The experiment in a line: Minimum inhibitory concentration against Pseudomonas aeruginosa NCIB 6749 was determined in complex medium. The class given is functional.
Another series deals with Alcaligenes faecalis. The series can be described thus: Minimum inhibitory concentration against Alcaligenes faecalis was determined in agar medium. The class given is functional.
Series [4] concerns Pseudomonas aeruginosa. The series can be described thus: Minimum inhibitory concentration against Pseudomonas aeruginosa NCIB 6749 was determined in agar medium. The format is functional.
Series [5] in a line: Half life periof was determined. The class given is ADME.
Another series relates to Bacteria. The series can be described thus: Minimum inhibitory concentration against Corynebacterium was determined in agar medium. The format is functional.
Series [6] relates to Pseudomonas aeruginosa. The experiment in a line: Minimum inhibitory concentration against Pseudomonas aeruginosa NCIB 12201 was determined in agar medium. The class given is functional.
Series [7] is described as follows: Lethal dose in rat. The class given is toxicity. The following applies: in vivo.
Another series concerns Bacillus subtilis. The series can be described thus: Minimum inhibitory concentration against Bacillus subtilis. The class given is functional.
Series [8] has as its system Pseudomonas aeruginosa. The experiment in a line: Minimum inhibitory concentration against Pseudomonas aeruginosa ATCC 15442 was determined in agar medium. The class given is functional.

Structures are written as SMILES. Converted amounts (≈) assume the structure as drawn. Some results are limits rather than exact numbers.

Usually half-life stands for how long it takes for the measured level to halve. Take `O=C(Nc1onc2c1CCC2)C(F)(F)F`: in series [1], the half-life is 105 h.
As usually defined, the MIC is the least concentration at which growth counts as inhibited. Higher therefore signals a less susceptible organism. In the case of `O=C(OCCBr)N(C(=O)OCCBr)c1onc2c1CCC2`, the MIC against Pseudomonas aeruginosa [2] worked out at 10 µg/mL (≈ 23.5 µM); against Pseudomonas aeruginosa [3] it was 5 µg/mL (≈ 11.7 µM).
Molecule `CCCC(=O)N(C(=O)CCC)c1onc2c1CCC2` showed a half-life in [1] of 6 h.
As to `CCCCOC(=O)N(C(=O)OCCCC)c1onc2c1CCC2`, the minimal inhibitory concentration (MIC) in the series on Pseudomonas aeruginosa [2] and against Pseudomonas aeruginosa [3] was 10 µg/mL (≈ 30.8 µM) each time.
Take `O=C(OCCCl)N(C(=O)OCCCl)c1onc2c1CCC2`: the MIC in the series on Pseudomonas aeruginosa [2] was found to be 10 µg/mL (≈ 29.7 µM); with Pseudomonas aeruginosa [3], 5 µg/mL (≈ 14.8 µM).
With `O=C(OCC(Cl)(Cl)Cl)N(C(=O)OCC(Cl)(Cl)Cl)c1onc2c1CCC2`, the values for the MIC against Pseudomonas aeruginosa [2] and against Pseudomonas aeruginosa [3] were 10 µg/mL (≈ 21.1 µM) and 5 µg/mL (≈ 10.5 µM), respectively.
With `C=C(C)OC(=O)N(C(=O)OC(=C)C)c1onc2c1CCC2`, the MIC against Pseudomonas aeruginosa [2] and in the series on Pseudomonas aeruginosa [3] was 10 µg/mL (≈ 34.2 µM) in each case.
For the molecule `CC(C)COC(=O)N(C(=O)OCC(C)C)c1onc2c1CCC2`, the minimum inhibitory concentration (MIC) with Pseudomonas aeruginosa [2] was 10 µg/mL (≈ 30.8 µM); against Pseudomonas aeruginosa [3], 5 µg/mL (≈ 15.4 µM).
The term LD50 denotes the dose expected to kill half of the subjects tested. Lower therefore signals a more toxic substance. In the case of `Nc1onc2c1CCC2`, the MIC in the series on Alcaligenes faecalis is below 1 µg/mL; with Pseudomonas aeruginosa [4], below 1 µg/mL; in the series with Bacteria, below 1 µg/mL; against Pseudomonas aeruginosa [6], 7.5 µg/mL (≈ 60.4 µM); in the series on Bacillus subtilis, 5 µg/mL (≈ 40.3 µM); in the series with Pseudomonas aeruginosa [8], 5 µg/mL (≈ 40.3 µM). The molecule also gave a half-life in series [5] of 97 h. The same molecule yielded a median lethal dose (LD50) in series [7] below 300 mg/kg.
